# Assay results taken from article PMC9074039, “Molecular analysis and essentiality of Aro1 shikimate biosynthesis multi-enzyme in Candida albicans” (Life Science Alliance, 2022).
# Key:
# Aro1DHQS = molecular target: T1, Aro1DHQS (Candida albicans, UniProt Q5AME2); test: X-ray crystal structure, […] A; assay type: binding; conditions: co-crystallised with 2 mM NADH and 0.5 mM ZnCl2; one NADH per chain
# T1 construct: gene ARO1; N-terminal DHQS domain, residues 1-387, expressed in E. coli BL21(DE3) Gold, His6-TEV tag cut; dimer in crystal; strain SC5314 printed for the full-length clone pLC1335
# Aro1EPSPS = molecular target: T2, Aro1EPSPS (Candida albicans, UniProt Q5AME2); test: X-ray crystal structure, […] A; assay type: binding; conditions: co-crystallised with 1 mM shikimate-3-phosphate, pH 8; closed conformation
# T2 construct: gene ARO1; EPSPS domain, residues 387-844, expressed in E. coli BL21(DE3) Gold, His6-TEV tag cut; strain SC5314 printed for the full-length clone pLC1335
# T2 sequence (Q5AME2 387-844): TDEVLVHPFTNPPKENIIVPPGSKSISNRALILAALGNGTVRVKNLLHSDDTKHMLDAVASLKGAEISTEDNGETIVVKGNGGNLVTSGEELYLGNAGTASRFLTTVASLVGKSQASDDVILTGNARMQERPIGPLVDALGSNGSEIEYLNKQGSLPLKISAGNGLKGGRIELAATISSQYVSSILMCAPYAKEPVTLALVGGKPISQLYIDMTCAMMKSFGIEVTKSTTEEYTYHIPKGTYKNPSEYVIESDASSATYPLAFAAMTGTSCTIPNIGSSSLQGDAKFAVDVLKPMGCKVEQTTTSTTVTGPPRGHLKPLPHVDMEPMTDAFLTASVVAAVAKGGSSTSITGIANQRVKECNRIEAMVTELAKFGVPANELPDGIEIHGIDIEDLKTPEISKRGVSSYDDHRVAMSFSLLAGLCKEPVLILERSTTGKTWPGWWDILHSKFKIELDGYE
# T1 sequence (Q5AME2 1-387): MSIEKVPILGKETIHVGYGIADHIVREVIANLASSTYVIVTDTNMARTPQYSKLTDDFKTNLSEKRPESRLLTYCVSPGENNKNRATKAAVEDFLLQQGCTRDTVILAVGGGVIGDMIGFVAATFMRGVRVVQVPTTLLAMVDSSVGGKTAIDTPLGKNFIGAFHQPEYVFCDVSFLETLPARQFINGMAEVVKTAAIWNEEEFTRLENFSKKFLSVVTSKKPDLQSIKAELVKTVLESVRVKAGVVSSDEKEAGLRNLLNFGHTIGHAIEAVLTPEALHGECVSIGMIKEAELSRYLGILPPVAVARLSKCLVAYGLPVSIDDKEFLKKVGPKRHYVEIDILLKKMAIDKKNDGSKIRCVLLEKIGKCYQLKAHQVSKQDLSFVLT
SMILES,"X-ray crystal structure, 1.85 A (Aro1DHQS)","X-ray crystal structure, 1.85 A (Aro1EPSPS)"
NC(=O)C1=CN([C@@H]2O[C@H](COP(=O)(O)OP(=O)(O)OC[C@H]3O[C@@H](n4cnc5c(N)ncnc54)[C@H](O)[C@@H]3O)[C@@H](O)[C@H]2O)C=CC1 [NADH],one NADH molecule bound to each copy of this fragment,
"O=C(O)C1=C[C@@H](OP(=O)(O)O)[C@@H](O)[C@H](O)C1 [S3P, shikimate-3-phosphate]",,additional electron density corresponding to a molecule of this substrate in the cleft
